Source: patent US20120196927A1, “PROPHYLACTIC AND/OR THERAPEUTIC AGENT FOR METABOLIC SYNDROME” (priority 2009, published 2012)

Assays:
C57BL/6J-ob/ob mice = conditions: nobiletin 200 mg/kg/day, Pioglitazone 30 mg/kg/day, 5 weeks
Excerpt: Diabetes model mice and the experimental system were as follows. As the diabetes model mice, 7 week age of male C57BL/6J-ob/ob (hereinafter, it was referred to as “ob/ob”) were purchased from Charles River Laboratories Japan Inc., and used as 10 mice/group.
For the negative control group (from FIGS. 5 to 10, it was shown as Vehicle; hereinafter, it is referred to as “solvent administration group”), 0.3% of CMC aqueous solution was administrated orally for 5 weeks in everyday at the dosage of 0.01 mL/g body weight. For the positive control group (in FIGS. 5 to 10 and hereinafter, it was referred to as “P30 administrated group”), 3 mg of Pioglitazone was suspended in 0.3% CMC aqueous solution so as to be orally administrated at the dosage of 0.01 mL/g body weight for 5 weeks in everyday (dosage: 30 mg/kg body weight/day). […]
The blood insulin level was measured as described in below. […] As lipids in plasma, concentrations of neutral fat (TG) and total cholesterol (T-CHO) were measured. Plasma insulin level was measured by using rebis insulin mouse (type U) (Shibayagi Co. Ltd.) based on the enzyme-immunoassay.

[1] = system: SREBP1-c, SCD1, FAS, ACC1, DGAT1, GLUT4, Adiponectin, TNF-α, MCP-1, PPARγ genes; test: Nobiletin, obesity-induced mice: gene expression in the white adipose tissue (mRNA); assay type: in vivo, mouse
Method: mRNA expression level was determined by using real time PCR as follows. According to the direction attached with ISOGEN (Nippon Gene Co., Ltd), RNA was extracted from white adipose tissue, liver, and skeletal muscle. Next, cDNA was prepared from 1 μg of RNA by using Reverse Transcription System kit (Promega, USA). Subsequently, according to the direction attached with FastStart universal SYBR (Registered trademark) Greenmaster PCR kit reagent (Roche Diagnostics, Germany), primers suitable for each intended gene in the following experiments were synthesized. Real time PCR system 7700 HT (Applied Biosytems, USA) was used for the measurement, the cDNA was used as templates for the real time PCR. Reaction conditions were followed to those for the PCR kit reagents. Quantitative analysis of RNA level was performed by Comparison Ct method, using glyceraldehyde 3-phosphate dehydrogenase (GAPDH) as the standard.
The expression of mouse lipid biosynthesis-related gene and other gene shown in the following table 24 after obesity induction by ingesting the high fat diet were determined as mRNA levels to study the effects of nobiletin to these gene expression (n=9). The expression levels of each gene were shown in the ratio when those of the HFD were 1.

male C57BL/6 mice [2] = test: Nobiletin, obesity-induced mice: glucose tolerance test (OGTT); assay type: in vivo, mouse; conditions: for Blood glucose level (OGTT): HFD
Method: The sugar tolerance test was carried out as the same as those done in the example 2 (n=9).

male C57BL/6 mice [3] = test: Nobiletin, obesity-induced mice: tissue weight; assay type: in vivo, mouse; conditions: HFD obesity-induced mice
Excerpt: Six weeks age of male C57BL/6 mice were preliminary reared for 1 week (−9 to −8 week); then classified into 4 groups (n=9 in each group). LFD was given to one group and HFD was given to other 3 groups for 8 weeks (−8 to +5 week). From 8 weeks (15 week age) to 13 weeks, each group was given the following agents per os for 5 weeks in everyday. In below, the LFD administration group was defined that they ingested LFD; the HFD administration group is defined that they ingested the HFD without nobiletin. The compositions of the LFD and HFD are the same as those used in the Example 3.
To both of the LFD administration group and the HFD administration group, 0.3% CMC aqueous solution was given at the amount of 0.01 mL/g body weight. […] The group to which nobiletin was given at the amount of 10 mg/kg/day was referred to as “No10 administration group; the abbreviated as HFD+No 10” and another group to which nobiletin was given at the amount of 100 mg/kg/day was referred to as “No 100 administration group; abbreviated as HFD+No 100”. The schedule of the feed ingestion and administration of the agent for the above-mentioned 4 groups were schematically shown in FIG. 12A.

[4] = system: gluconeogenesis-related genes PEPCK, G6Pase; test: Diabetes model mice: mRNA expression in the liver (real time RT-PCR); assay type: in vivo, mouse; conditions: ob/ob mice, Vehicle = 1.00, nobiletin 200 mg/kg/day, Pioglitazone 30 mg/kg/day, 5 weeks
Method: The effects by nobiletin ingestion to the mRNA expression in the white adipose tissue and the liver were measured (n=10).
After the termination of the administration period for 5 weeks, mRNA expression levels of respective genes shown in the table 10 were determined by using real time RT-PCR method. The real time RT-PCR was carried out according to an operation manual provided by ISOGEN (NIPPON GENE CO., LTD); RNA was extracted from the white adipose tissue and the liver. Next, cDNA was prepared from using 1 μg of RNA by using Reverse Transcription System kit (Promega Corp., USA). Next, suitable primers for the above-mentioned genes were prepared according to the operation manual provided by FastStart universal SYBR (a registered trademark) Greenmaster PCR KIT agent (Roche Diagnostics K. K., Germany).
Real time PCR system 7700HT (Applied Biosytems, USA) was used for the determination to carry out the real time PCR by using the cDNAs as templates. Each reaction conditions were set according to the manual of the PCR KIT. Quantitative analysis of the RNA amount was carried out based on comparative Ct method by using glyceraldehyde 3-phosphate dehydrogenase (GAPDH) as the standard reference.

[5] = ratio HFD = 1, nobiletin 10 mg/kg/day p.o. 5 weeks
[6] = ratio HFD = 1, nobiletin 100 mg/kg/day p.o. 5 weeks
[7] = nobiletin 10 mg/kg/day p.o. 5 weeks
[8] = nobiletin 100 mg/kg/day p.o. 5 weeks

With COc1ccc(-c2cc(=O)c3c(OC)c(OC)c(OC)c(OC)c3o2)cc1OC [nobiletin] the “Adiponectin level in blood, times higher than solvent administration group” value (C57BL/6J-ob/ob mice) was “not so high”, the “Expression level, ACC1” value [1, 5] was 2.06 ± 0.05 and the “Expression level, Adiponectin” value [1, 5] was 1.97 ± 0.09. For the same compound, the “Expression level, DGAT1” value [1, 5] was 2.17 ± 0.19, the “Expression level, FAS” value [1, 5] was 2.78 ± 0.06 and the “Expression level, GLUT4” value [1, 5] was 1.34 ± 0.09. For the same compound, the “Expression level, MCP-1” value [1, 5] was 0.44 ± 0.02, the “Expression level, PPARγ” value [1, 5] was 1.61 ± 0.11 and the “Expression level, SCD1” value [1, 5] was 2.30 ± 0.06. The “Expression level, SREBP1-c” value [1, 5] was 2.15 ± 0.21, the “Expression level, TNF-α” value [1, 5] was 1.06 ± 0.12 and the “Expression level, ACC1” value [1, 6] was 1.69 ± 0.07. The “Expression level, Adiponectin” value [1, 6] was 2.02 ± 0.08, the “Expression level, DGAT1” value [1, 6] was 1.80 ± 0.14 and the “Expression level, FAS” value [1, 6] was 2.50 ± 0.03. For the same compound, the “Expression level, GLUT4” value [1, 6] was 1.35 ± 0.07, the “Expression level, MCP-1” value [1, 6] was 0.35 ± 0.01 and the “Expression level, PPARγ” value [1, 6] was 1.36 ± 0.05. The “Expression level, SCD1” value [1, 6] was 2.95 ± 0.17, the “Expression level, SREBP1-c” value [1, 6] was 1.53 ± 0.20 and the “Expression level, TNF-α” value [1, 6] was 0.58 ± 0.14. The “area under the curve (AUC) of blood glucose in OGTT, compared with HFD administration group” value (male C57BL/6 mice [2]; 0 to 120 minutes, nobiletin 10 mg/kg/day p.o.) was “no significant difference”, the “area under the curve (AUC) of blood glucose in OGTT, compared with HFD group” value (male C57BL/6 mice [2]; 0 to 120 minutes, nobiletin 100 mg/kg/day p.o., p<0.05) was “significant difference” and the “Blood glucose level (OGTT)” value (male C57BL/6 mice [2]; 0 minute after glucose, nobiletin 10 mg/kg/day p.o.) was 157.47 ± 10.54 mg/dL. For the same compound, the “Blood glucose level (OGTT)” value (male C57BL/6 mice [2]; 0 minute after glucose, nobiletin 100 mg/kg/day p.o.) was 128.49 ± 5.59 mg/dL, the “Blood glucose level (OGTT)” value (male C57BL/6 mice [2]; 15 minutes after glucose, nobiletin 10 mg/kg/day p.o.) was 384.94 ± 17.66 mg/dL and the “Blood glucose level (OGTT)” value (male C57BL/6 mice [2]; 15 minutes after glucose, nobiletin 100 mg/kg/day p.o.) was 340.91 ± 16.88 mg/dL. For the same compound, the “Blood glucose level (OGTT)” value (male C57BL/6 mice [2]; 30 minutes after glucose, nobiletin 10 mg/kg/day p.o.) was 342.5 ± 27.08 mg/dL, the “Blood glucose level (OGTT)” value (male C57BL/6 mice [2]; 30 minutes after glucose, nobiletin 100 mg/kg/day p.o.) was 334.84 ± 16.98 mg/dL and the “Blood glucose level (OGTT)” value (male C57BL/6 mice [2]; 60 minutes after glucose, nobiletin 10 mg/kg/day p.o.) was 271.76 ± 31.64 mg/dL. The “Blood glucose level (OGTT)” value (male C57BL/6 mice [2]; 60 minutes after glucose, nobiletin 100 mg/kg/day p.o.) was 267.27 ± 18.22 mg/dL, the “Blood glucose level (OGTT)” value (male C57BL/6 mice [2]; 120 minutes after glucose, nobiletin 10 mg/kg/day p.o.) was 217.1 ± 35.92 mg/dL and the “Blood glucose level (OGTT)” value (male C57BL/6 mice [2]; 120 minutes after glucose, nobiletin 100 mg/kg/day p.o.) was 178.45 ± 15.37 mg/dL. The “Tissue Weight, Kidney” value (male C57BL/6 mice [3]; [7]) was 0.34 ± 0.02 g/100 g of body weight, the “Tissue Weight, Liver” value (male C57BL/6 mice [3]; [7]) was 1.28 ± 0.08 g/100 g of body weight and the “Tissue Weight, White adipose tissue” value (male C57BL/6 mice [3]; [7]) was 1.96 ± 0.28 g/100 g of body weight. For the same compound, the “Tissue Weight, White adipose tissue [Periphery of genitals]” value (male C57BL/6 mice [3]; [7]) was 1.23 ± 0.19 g/100 g of body weight, the “Tissue Weight, White adipose tissue [Periphery of intestine]” value (male C57BL/6 mice [3]; [7]) was 0.27 ± 0.04 g/100 g of body weight and the “Tissue Weight, White adipose tissue [Periphery of kidney]” value (male C57BL/6 mice [3]; [7]) was 0.47 ± 0.07 g/100 g of body weight. For the same compound, the “Tissue Weight, Kidney” value (male C57BL/6 mice [3]; [8]) was 0.35 ± 0.01 g/100 g of body weight, the “Tissue Weight, Liver” value (male C57BL/6 mice [3]; [8]) was 1.40 ± 0.04 g/100 g of body weight and the “Tissue Weight, White adipose tissue” value (male C57BL/6 mice [3]; [8]) was 1.52 ± 0.15 g/100 g of body weight. For the same compound, the “Tissue Weight, White adipose tissue [Periphery of genitals]” value (male C57BL/6 mice [3]; [8]) was 0.92 ± 0.09 g/100 g of body weight, the “Tissue Weight, White adipose tissue [Periphery of intestine]” value (male C57BL/6 mice [3]; [8]) was 0.20 ± 0.02 g/100 g of body weight and the “Tissue Weight, White adipose tissue [Periphery of kidney]” value (male C57BL/6 mice [3]; [8]) was 0.36 ± 0.03 g/100 g of body weight. The “Gene expression level (ratio), [L]G6Pase” value [4] was 0.29 ± 0.01 and the “Gene expression level (ratio), [L]PEPCK” value [4] was 0.34 ± 0.03.
